Experimental data from article PMC11320574 (ACS Infectious Diseases, 2024).
Positions of bridges follow the written chain, without caps; N, C: chain ends. Residues, ends and D or L forms follow the SMILES beside them.

Assays:
[1] = tested on: P. falciparum 3D7; assay: In vitro growth inhibition of P. falciparum 3D7; type: cell-based, Plasmodium falciparum; details: HC10 of uninfected RBCs relative to Pf IC50 with 5 mg/mL Albumax II supplement
[2] = Resistance to breakdown by serum proteases; type: in vitro ADME; details: human, 25% (v/v) human serum in PBS

## CC[C@H](C)[C@@H]1NC(=O)[C@H](CCCCN)NC(=O)[C@H](CCCCN)NC(=O)[C@H](Cc2ccc(O)cc2)NC(=O)[C@H](CC(C)C)NC(=O)[C@@H]2CCCN2C(=O)[C@H](C)NC(=O)CNC(=O)CNC(=O)[C@H](CO)NC(=O)CNC(=O)CNC(=O)[C@H](CO)NC(=O)[C@H](CCCCN)NC(=O)[C@H](CC(C)C)NC(=O)[C@H](CC(C)C)NC(=O)[C@H](CCCCN)NC(=O)[C@H](CCCCN)NC(=O)[C@H]([C@@H](C)CC)NC(=O)[C@H]([C@@H](C)CC)NC(=O)[C@H](CCCCN)NC(=O)[C@H](CCCCN)NC(=O)[C@H](Cc2ccc(O)cc2)NC(=O)[C@H](CC(C)C)NC(=O)[C@@H]2CCCN2C(=O)CNC(=O)CNC(=O)[C@@H](NC(=O)CN)CSSC[C@@H](C(N)=O)NC(=O)[C@H](CC(C)C)NC(=O)[C@H](CCCCN)NC(=O)[C@H](CCCCN)NC(=O)[C@H]([C@@H](C)CC)NC1=O [Peptide 10] (H-GCGGPLYKKIIKKLLKSGGSGGAPLYKKIIKKLC-NH2; disulfide 2-34; N-terminus assumed)
[1]
  Activity-hemolysis index RBC HC10/ Pf IC50: 6.5 ± 1.2
[2]
  remaining at 24 h, 50 μM: 0%
